In article PMC3378573, “TRPA1 Is a Polyunsaturated Fatty Acid Sensor in Mammals” (PLoS ONE, 2012):
pEC50: −log10 of the molar value. Values belong to the molecule of their own block, whether it stands above or below them.

Legend:
Type in all cases: cell-based
[1] = target: T1, TRPA1 (Rattus norvegicus, UniProt Q6RI86); assay: whole-cell patch clamp in transfected HEK293 cells, […] fatty acid
[2] = target: TRPA1 (Mus musculus, UniProt Q8BLA8); assay: whole-cell patch clamp of native TRPA1 in STC-1 cells (-60 mV)
From the text: whole-cell patch clamp of native TRPA1 in STC-1 cells (-60 mV) on TRPA1 | Concentration-response curve for AITC evoked currents in STC-1 cells

[3] = target: T1, TRPA1; assay: whole-cell patch clamp in transfected HEK293 cells (-60 mV), with NAC
[4] = target: T1, TRPA1; assay: patch clamp of native TRPA1 in RIN14B cells, block of DHA current at […]

T1 sequence (Q6RI86 whole entry): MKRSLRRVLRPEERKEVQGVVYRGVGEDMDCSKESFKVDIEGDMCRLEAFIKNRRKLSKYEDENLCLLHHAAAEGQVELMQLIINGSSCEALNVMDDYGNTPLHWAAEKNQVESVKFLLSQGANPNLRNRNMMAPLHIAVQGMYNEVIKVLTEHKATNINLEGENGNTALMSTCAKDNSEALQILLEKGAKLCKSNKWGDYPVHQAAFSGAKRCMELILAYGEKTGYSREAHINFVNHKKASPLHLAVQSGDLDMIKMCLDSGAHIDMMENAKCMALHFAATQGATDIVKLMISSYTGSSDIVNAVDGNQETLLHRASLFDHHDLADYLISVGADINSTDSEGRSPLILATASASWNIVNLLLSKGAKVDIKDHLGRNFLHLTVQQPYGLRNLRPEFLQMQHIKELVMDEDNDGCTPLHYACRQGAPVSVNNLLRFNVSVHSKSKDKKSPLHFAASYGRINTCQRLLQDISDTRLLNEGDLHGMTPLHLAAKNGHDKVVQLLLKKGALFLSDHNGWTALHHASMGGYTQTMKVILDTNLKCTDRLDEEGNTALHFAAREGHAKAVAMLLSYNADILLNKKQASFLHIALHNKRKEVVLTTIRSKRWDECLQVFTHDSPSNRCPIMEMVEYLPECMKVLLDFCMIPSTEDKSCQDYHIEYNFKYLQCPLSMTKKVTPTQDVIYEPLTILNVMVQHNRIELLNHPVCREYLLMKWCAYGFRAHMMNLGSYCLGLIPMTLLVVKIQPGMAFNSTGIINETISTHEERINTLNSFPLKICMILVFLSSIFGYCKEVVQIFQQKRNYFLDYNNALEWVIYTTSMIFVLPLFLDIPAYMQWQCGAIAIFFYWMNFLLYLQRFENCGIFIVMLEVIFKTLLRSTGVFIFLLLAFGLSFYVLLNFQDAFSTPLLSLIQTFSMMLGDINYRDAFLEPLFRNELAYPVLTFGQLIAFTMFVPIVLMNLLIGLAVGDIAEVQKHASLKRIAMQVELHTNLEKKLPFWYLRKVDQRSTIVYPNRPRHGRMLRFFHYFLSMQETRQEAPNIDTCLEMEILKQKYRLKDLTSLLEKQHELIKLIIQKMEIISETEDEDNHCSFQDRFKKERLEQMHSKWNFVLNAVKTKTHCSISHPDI
Chain of TRPA1 (Mus musculus, UniProt Q8BLA8) (Q8BLA8 whole entry): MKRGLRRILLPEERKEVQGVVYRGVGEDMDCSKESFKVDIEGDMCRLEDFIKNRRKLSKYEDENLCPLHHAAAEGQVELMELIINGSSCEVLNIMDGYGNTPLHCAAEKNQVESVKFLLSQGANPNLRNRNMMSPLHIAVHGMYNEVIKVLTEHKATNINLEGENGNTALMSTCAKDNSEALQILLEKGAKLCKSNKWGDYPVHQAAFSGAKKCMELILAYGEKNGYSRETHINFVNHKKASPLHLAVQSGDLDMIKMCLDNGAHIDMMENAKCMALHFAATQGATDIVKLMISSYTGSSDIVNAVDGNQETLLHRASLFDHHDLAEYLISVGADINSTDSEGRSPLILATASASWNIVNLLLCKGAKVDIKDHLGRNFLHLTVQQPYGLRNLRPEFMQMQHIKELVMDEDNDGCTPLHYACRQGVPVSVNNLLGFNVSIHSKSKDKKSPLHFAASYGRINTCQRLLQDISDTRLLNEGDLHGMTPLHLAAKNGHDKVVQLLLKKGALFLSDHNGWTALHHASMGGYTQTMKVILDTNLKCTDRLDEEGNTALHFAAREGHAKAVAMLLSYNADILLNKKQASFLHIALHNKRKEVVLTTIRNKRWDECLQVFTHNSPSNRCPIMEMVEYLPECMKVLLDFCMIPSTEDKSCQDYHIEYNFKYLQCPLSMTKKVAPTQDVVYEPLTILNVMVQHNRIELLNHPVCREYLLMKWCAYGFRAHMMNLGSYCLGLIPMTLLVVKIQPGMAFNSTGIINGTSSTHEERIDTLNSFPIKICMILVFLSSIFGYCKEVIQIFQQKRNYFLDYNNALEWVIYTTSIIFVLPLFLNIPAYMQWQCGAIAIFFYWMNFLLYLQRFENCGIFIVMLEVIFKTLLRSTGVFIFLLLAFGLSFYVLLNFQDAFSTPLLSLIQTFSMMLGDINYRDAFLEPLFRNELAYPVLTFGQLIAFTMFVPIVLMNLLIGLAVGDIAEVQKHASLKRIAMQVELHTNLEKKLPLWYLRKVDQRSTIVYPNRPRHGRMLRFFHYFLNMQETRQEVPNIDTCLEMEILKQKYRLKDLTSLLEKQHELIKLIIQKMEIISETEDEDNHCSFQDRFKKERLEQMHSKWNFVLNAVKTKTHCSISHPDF

SMILES: CCCCC/C=C\C/C=C\C/C=C\C/C=C\CCCC(=O)O [AA, arachidonic acid]
whole-cell patch clamp in transfected HEK293 cells, 100 μM fatty acid [1]: Thus, AA, EPA and DHA possess approximate equivalent efficacy.

SMILES: C=CCN=C=S [AITC, allyl isothiocyanate]
pEC50 [2]: 4.54

pEC50 [3]: 4.39
SMILES: CC/C=C\C/C=C\C/C=C\C/C=C\C/C=C\C/C=C\CCC(=O)O [DHA, docosahexaenoic acid]

SMILES: CC(C)c1ccc(NC(=O)Cn2cnc3c2c(=O)n(C)c(=O)n3C)cc1 [HC030031]
patch clamp of native TRPA1 in RIN14B cells, block of DHA current at 50 μM [4]: outwardly-rectified conductance in voltage-clamped STC-1 and RIN14B cells, that is inhibited by the TRPA1 antagonist, HC030031
